According to US20250099474A1 (priority 2022, published 2025):
Where two headings read alike, the source gives them in different places.

Test system: SARS-CoV-2
Assay type: in vivo, human
Details: Phase 3 Part; for Time to resolution of five COVID-19 symptoms: Maximum value: +: includes censored data
Protocol: The primary endpoint of Phase 3 Part was the time to resolution of five COVID-19 symptoms in mild/moderate SARS-CoV-2-infected patients, and the efficacy was verified by evaluation of the five COVID-19 symptoms in four grades (0: none, 1: mild, 2: moderate, 3: severe) by the patients themselves.
The 750/250 mg group received 750 mg on Day 1 as a loading dose and 250 mg on Days 2 to 5 as a maintenance dose.
The primary efficacy endpoint of Phase 3 Part for mild/moderate SARS-CoV-2-infected patients was the time to resolution of the five COVID-19 symptoms.
Existing symptoms that existed before the onset of COVID-19 and were determined by the subject to be worsening at the baseline (pre-administration test) time point had to be improved […] from the severity at the baseline time point. • Severity at baseline was “severe”→“moderate”, “mild”, or “none” • Severity at baseline was “moderate”→“mild”, or “none” • Severity at baseline was “mild”→[…] “none” • Existing symptoms that existed before the onset of COVID-19 and were determined by the subject not to be worsening at the baseline (pre-administration test) time point had to be maintained or improved from the severity at the baseline time point. • Severity at baseline was “severe”->“severe”, “moderate”, “mild”, or “none” • Severity at baseline was “moderate”->“moderate”, “mild”, or “none” • Severity at baseline was “mild”→“mild”, or “none” • Regarding symptoms other than the above, that is, symptoms that were not present before the onset of COVID-19 and developed at or after the baseline (pre-administration test) time point, such symptoms had to be eliminated. • Severity at baseline was “severe”, “moderate”, or “mild”→“none”
As the key secondary analysis of the primary endpoint, the same analysis as the primary analysis was performed for the population of the mild/moderate SARS-CoV-2-infected patients in the ITT population.

[1] = ITT, onset to randomization less than 72 hours, 375/125 mg group
[2] = mild/moderate patients, ITT population, 375/125 mg group
[3] = mild/moderate patients, ITT population, 750/250 mg group
[4] = mild/moderate patients, ITT, onset to randomization less than 72 hours, 375/125 mg group
[5] = mild/moderate patients, ITT, onset to randomization less than 72 hours, 375/125 mg group, 336 cases analyzed

Cn1cnc(Cn2c(=O)[nH]/c(=N\c3cc4cn(C)nc4cc3Cl)n(Cc3cc(F)c(F)cc3F)c2=O)n1 [(6E)-6-[(6-chloro-2-methyl-2H-indazol-5-yl)imino]-3-[(1-methyl-1H-1,2,4-triazol-3-yl)methyl]-1-[(2,4,5-trifluorophenyl)methyl]-1,3,5-triazinane-2,4-dione]
Time to resolution of the five symptoms of COVID-19 shortened as the median value compared with placebo group by (ITT population, 375/125 mg group): 10.6 h
Time to resolution of 12 COVID-19 symptoms reduced compared to placebo group by a median of [1]: 34.0 h
Time to resolution of 14 COVID-19 symptoms reduced compared to placebo group by a median of [1]: 44.1 h
Time to resolution of the five COVID-19 symptoms shortened as the median compared with placebo group by [1]: 24.3 h
Time to resolution of the five symptoms of COVID-19, significance vs placebo (mild/moderate patients, ITT population): no significant difference was observed
Time to resolution of five COVID-19 symptoms: 25% point [2]: 104.3, — hour
Time to resolution of five COVID-19 symptoms: Difference of RMST (vs placebo) [2]: -5.6 h
Time to resolution of five COVID-19 symptoms: Difference of median value (vs placebo) [2]: -10.6 h
Time to resolution of five COVID-19 symptoms: Kaplan-Meier median value [2]: 189.7 h
Time to resolution of five COVID-19 symptoms: Minimum value [2]: 2.4 h
Time to resolution of five COVID-19 symptoms: Number of events (value in parentheses) [2]: (73.0)
Time to resolution of five COVID-19 symptoms: Restricted mean survival time during 21 days (RMST) [2]: 254.4 h
Time to resolution of five COVID-19 symptoms: Number of events (mild/moderate patients, ITT population, 375/125 mg group, 582 cases analyzed): 425
Time to resolution of five COVID-19 symptoms: Maximum value [2]: 493.3 h
Time to resolution of five COVID-19 symptoms: 25% point [3]: 99.2 h
Time to resolution of five COVID-19 symptoms: 75% point [3]: 434.8 h
Time to resolution of five COVID-19 symptoms: Difference of RMST (vs placebo) [3]: -14.9 h
Time to resolution of five COVID-19 symptoms: Difference of median value (vs placebo) [3]: -23.0 h
Time to resolution of five COVID-19 symptoms: Kaplan-Meier median value [3]: 177.3 h
Time to resolution of five COVID-19 symptoms: Minimum value [3]: 9.4 h
Time to resolution of five COVID-19 symptoms: Number of events (value in parentheses) [3]: (75.3)
Time to resolution of five COVID-19 symptoms: Restricted mean survival time during 21 days (RMST) [3]: 245.1 h
Time to resolution of five COVID-19 symptoms: Number of events (mild/moderate patients, ITT population, 750/250 mg group, 575 cases analyzed): 433
Time to resolution of five COVID-19 symptoms: Maximum value [3]: 493.1 h
Time to resolution of 12 COVID-19 symptoms: 25% point [4]: 105.6, — hour
Time to resolution of 12 COVID-19 symptoms: Difference of RMST (vs placebo) [4]: -16.9 h
Time to resolution of 12 COVID-19 symptoms: Difference of median value (vs placebo) [4]: -34.0 h
Time to resolution of 12 COVID-19 symptoms: Kaplan-Meier median value [4]: 179.2 h
Time to resolution of 12 COVID-19 symptoms: Minimum value [4]: 2.4 h
Time to resolution of 12 COVID-19 symptoms: Number of events (value in parentheses) [4]: (72.6)
Time to resolution of 12 COVID-19 symptoms: Restricted mean survival time during 21 days (RMST) [4]: 253.9 h
Time to resolution of 14 COVID-19 symptoms: 25% point [4]: 105.6, — hour
Time to resolution of 14 COVID-19 symptoms: Difference of RMST (vs placebo) [4]: -20.1 h
Time to resolution of 14 COVID-19 symptoms: Difference of median value (vs placebo) [4]: -44.1 h
Time to resolution of 14 COVID-19 symptoms: Kaplan-Meier median value [4]: 187.8 h
Time to resolution of 14 COVID-19 symptoms: Minimum value [4]: 2.4 h
Time to resolution of 14 COVID-19 symptoms: Number of events (value in parentheses) [4]: (71.7)
Time to resolution of 14 COVID-19 symptoms: Restricted mean survival time during 21 days (RMST) [4]: 257.9 h
Time to resolution of five COVID-19 symptoms: 25% point [4]: 99.5 h
Time to resolution of five COVID-19 symptoms: 75% point [4]: 424.8 h
Time to resolution of five COVID-19 symptoms: Difference of RMST (vs placebo) [4]: -19.4 h
Time to resolution of five COVID-19 symptoms: Difference of median value (vs placebo) [4]: -24.3 h
Time to resolution of five COVID-19 symptoms: Kaplan-Meier median value [4]: 167.9 h
Time to resolution of five COVID-19 symptoms: Minimum value [4]: 2.4 h
Time to resolution of five COVID-19 symptoms: Number of events (value in parentheses) [4]: (75.6)
Time to resolution of five COVID-19 symptoms: Restricted mean survival time during 21 days (RMST) [4]: 241.6 h
Time to resolution of 12 COVID-19 symptoms: Number of events [5]: 244
Time to resolution of 14 COVID-19 symptoms: Number of events [5]: 241
